{
  "source": "patent US20230065462A1",
  "about": "“Pharmaceutical composition and use thereof” (HENAN TAIFENG BIOLOGICAL TECHNOLOGY CO., LTD., priority 2020, published 2023)",
  "type_in_all_cases": "in vivo, Leghorn chickens",
  "key": {"cockscomb [1]": {"tested_on": "cockscomb", "test": "Cockscomb hemangioma model: general (naked eye) observation of cockscomb after drug injection", "source_text": "Animals: 88 Leghorn chickens of clean grade and raised under uniform feeding conditions in the same batch, male, weighing 1000 1500 g, 10 12 weeks old, provided by the Animal Experimental Center of Qinglongshan Animal Breeding Farm in Jiangning, Nanjing. The cockscomb is required to be plump, smooth, ruddy, and no lesion. All animals are reared in the same laboratory according to the requirements of clean grade, and they can eat and drink freely. The experimental process complies with the People's Republic of China “Regulations on the Management of Laboratory Animals” and ethical requirements. Test drugs: each component of the drug composition is commercially available. Citric acid, paeoniflorin, and gallic acid are mixed at the ratio described in the following table to obtain com[…]-I, respectively. Then, each composition was dissolved in water for injection to obtain an injection with a concentration of 13.2 mg/mL. The positive control group used lauromacrogol parenteral solution (Specification: 10 mL: 100 mg, Shaanxi Tianyu Pharmaceutical Co., Ltd.) as a sclerosing agent, and was prepared into a 5 mg/ml injection with water for injection before use. The clean grade of male Leghorn chickens were selected and randomly divided into a blank control group, a positive control group and a pharmaceutical composition groups A-I, a total of 11 groups, each with 8 chickens. Four points were selected for the cockscomb of each cock as the drug injection point, and the cockscomb was observed, photographed, and sampled before the experiment and 3 days, 7 days, 14 days, and 28 days after the experiment. […] As the thickness of the cockscomb was 8 10 mm, only one side of the cockscomb is injected subcutaneously, and the non-injected side of the contralateral side was used as the self-control group. After the injection, the cocks were continued to raise under uniform conditions, eaten and drunk freely until the material was obtained. Before drug injection, the general condition of the cockscomb, including shape, color, thickness, surface condition, etc., were observed and recorded with photos. After the drug injection, the observation was performed every day, and included: the color change of the cockscomb, whether the epidermis has white spots, whether the edema occurs, whether tissue necrosis occurs on the surface, whether scab occurs, whether scar occurs, and whether the scab falls off, and the time distribution of fall off. The observation were recorded by taking photos at four time points, i.e., 3 days, 7 days, 14 days, and 28 days after the drug injection, and meanwhile, the experimental cock was anesthetized and the tissues at the injection site were taken and examined by light microscope."}, "cockscomb capillaries": {"tested_on": "cockscomb capillaries", "test": "Cockscomb hemangioma model: number of capillaries (HE staining and computer image analysis)", "details": "x±s, high-power field", "experimental": "(§1) The experimental cocks were anesthetized through intramuscular injection of 0.1 mg/kg Sumianxin, fixed, and cleaned, and after being disinfected, each cockscomb was marked with gentian violet to form 4 circles with a diameter of 1 cm in turn on one side of the each cockscomb from front to back, and was injected at the center of each circle: the blank control group was injected with 0.5 mL of solvent (water for injection), the positive control group was injected with 0.5 mL of 5 mg/ml lauromacrogol injection, and the groups A-I were injected with 0.5 mL of the corresponding 13.2 mg/mL injection of compositions 1-9, respectively, and the standard is that the surface tissue of the cockscomb turns white and produces a skin hill. As the thickness of the cockscomb was 8˜10 mm, only one side of the cockscomb is injected subcutaneously, and the non-injected side of the contralateral side was used as the self-control group. After the injection, the cocks were continued to raise under uniform conditions, eaten and drunk freely until the material was obtained.\n(§2) The tissues at the injection site were taken, fixed in 10% neutral formaldehyde fixative for 48 hours, embedded in paraffin, sectioned, stained with conventional HE, and examined by light microscope at 3 days, 7 days, 14 days, and 28 days after drug injection, respectively.\nThe processed tissue sections were sorted according to the number, and observed through an optical microscope. The changes in the number of blood vessels in each tissue section were observed under the adjusted high-power field of view (DABX400), and the changes in the number of apoptosis were observed by the TUNEL method. Five fields of view were randomly selected under the high-power field of view, and the image was analyzed using Tmage Proplus 6.0 software.\nAll data were processed with SPSS statistical software, and the data were expressed as x±s."}, "cockscomb [2]": {"tested_on": "cockscomb", "test": "Cockscomb hemangioma model: HE staining, histopathological changes under light microscope", "source_text": "The clean grade of male Leghorn chickens were selected and randomly divided into a blank control group, a positive control group and a pharmaceutical composition groups A-I, a total of 11 groups, each with 8 chickens. Four points were selected for the cockscomb of each cock as the drug injection point, and the cockscomb was observed, photographed, and sampled before the experiment and 3 days, 7 days, 14 days, and 28 days after the experiment.\nas §1, §2"}, "[3]": {"tested_on": "vascular endothelial cells", "test": "Cockscomb hemangioma model: cell apoptosis detection (TUNEL method and computer image analysis)", "details": "x±s, high-power field", "experimental": "as §1\nThe TUNEL method is used for cell apoptosis detection including cell detection and tissue specimen detection. The principle is that deoxyuridine triphosphate is connected to the 3′-OH end of broken DNA in apoptotic cells by the catalysis of deoxyribonucleotide terminal transferase, and then is also bound to the luciferin antibody linked with horseradish peroxidase, and thus, the apoptotic cells can be accurately positioned through the bond of the luciferin antibody with the horseradish peroxidase substrate diaminobenzidine. […]"}},
  "note": "Entries after “also recorded” stand apart in the source; their conditions may differ.",
  "data": [
    {"substance": "lauromacrogol [Positive control group]", "values": [
      {"measurement": "Cockscomb edema after drug injection", "setting": "cockscomb [1]; 0 d", "result": "no"},
      {"measurement": "The color and scab at the cockscomb injection site after drug injection", "setting": "cockscomb [1]; 0 d", "result": "white skin hills"},
      {"measurement": "Cockscomb appearance after drug injection", "setting": "cockscomb [1]; 0 d, 0.5 mL subcutaneous injection per point", "result": "normal"},
      {"measurement": "Cockscomb appearance after drug injection", "setting": "cockscomb [1]; 3 d", "result": "normal"},
      {"measurement": "Cockscomb edema after drug injection", "setting": "cockscomb [1]; 3 d", "result": "mild edema"},
      {"measurement": "The color and scab at the cockscomb injection site after drug injection", "setting": "cockscomb [1]; 3 d", "result": "dark red"},
      {"measurement": "Cockscomb appearance after drug injection", "setting": "cockscomb [1]; 7 d", "result": "normal"},
      {"measurement": "Cockscomb edema after drug injection", "setting": "cockscomb [1]; 7 d", "result": "the edema decreased"},
      {"measurement": "The color and scab at the cockscomb injection site after drug injection", "setting": "cockscomb [1]; 7 d", "result": "light yellow"},
      {"measurement": "Cockscomb appearance after drug injection", "setting": "cockscomb [1]; 14 d", "result": "normal"},
      {"measurement": "Cockscomb edema after drug injection", "setting": "cockscomb [1]; 14 d", "result": "the edema gradually decreased; also recorded: faintly edema"},
      {"measurement": "The color and scab at the cockscomb injection site after drug injection", "setting": "cockscomb [1]; 14 d", "result": "the center part of the drug injection site had a black scab, the surrounding part was yellow"},
      {"measurement": "Cockscomb appearance after drug injection", "setting": "cockscomb [1]; 28 d", "result": "normal"},
      {"measurement": "Cockscomb edema after drug injection", "setting": "cockscomb [1]; 28 d", "result": "with no edema and with scar"},
      {"measurement": "The color and scab at the cockscomb injection site after drug injection", "setting": "cockscomb [1]; 28 d", "result": "the black scab at the injection site fell off, became light yellow"},
      {"measurement": "appearance of the cockscomb", "setting": "cockscomb [1]; throughout the experiment", "result": "remained normal"},
      {"measurement": "number of capillaries", "setting": "cockscomb capillaries; 3 d", "result": "47.05 ± 4.12"},
      {"measurement": "number of capillaries", "setting": "cockscomb capillaries; 7 d", "result": "41.89 ± 4.25"},
      {"measurement": "number of capillaries", "setting": "cockscomb capillaries; 14 d", "result": "36.59 ± 3.62"},
      {"measurement": "number of capillaries", "setting": "cockscomb capillaries; 28 d", "result": "24.68 ± 4.33"},
      {"measurement": "The internal and external conditions of subcutaneous capillary lumens of cockscomb after drug injection", "setting": "cockscomb [2]; 3 d", "result": "inflammatory cells in the peripheral tissues were infiltrated, interstitial edema was obvious, and a small amount of collagen fibers proliferated"},
      {"measurement": "The morphology and number of subcutaneous capillaries of cockscomb after drug injection", "setting": "cockscomb [2]; 3 d", "result": "subcutaneous capillaries were destroyed and fused"},
      {"measurement": "The internal and external conditions of subcutaneous capillary lumens of cockscomb after drug injection", "setting": "cockscomb [2]; 7 d", "result": "collagen fibers were further proliferated, and inflammatory cells infiltrated and interstitial edema decreased"},
      {"measurement": "The morphology and number of subcutaneous capillaries of cockscomb after drug injection", "setting": "cockscomb [2]; 7 d", "result": "capillaries were further decreased"},
      {"measurement": "The internal and external conditions of subcutaneous capillary lumens of cockscomb after drug injection", "setting": "cockscomb [2]; 14 d", "result": "collagen fibers continued to proliferate"},
      {"measurement": "The morphology and number of subcutaneous capillaries of cockscomb after drug injection", "setting": "cockscomb [2]; 14 d", "result": "the number of blood vessels continued to decrease"},
      {"measurement": "The internal and external conditions of subcutaneous capillary lumens of cockscomb after drug injection", "setting": "cockscomb [2]; 28 d", "result": "filled with a large number of collagen fibers"},
      {"measurement": "The morphology and number of subcutaneous capillaries of cockscomb after drug injection", "setting": "cockscomb [2]; 28 d", "result": "the capillaries were significantly reduced"},
      {"measurement": "number of apoptotic cells", "setting": "[3]; 3 d", "result": "21.02 ± 3.56"},
      {"measurement": "number of apoptotic cells", "setting": "[3]; 7 d", "result": "36.78 ± 3.87"},
      {"measurement": "number of apoptotic cells", "setting": "[3]; 14 d", "result": "54.68 ± 3.65"},
      {"measurement": "number of apoptotic cells", "setting": "[3]; 28 d", "result": "68.62 ± 3.27"}
    ]}
  ]
}
